Experimental data from the CheMixHub viscosity set.

Test: xn = mol fraction of the nth substance listed

CC(C)CCO + OCCCCO
viscosity [mPa·s], 100 kPa
Conditions	x1 = 0.0812	x1 = 0.1634	x1 = 0.2525	x1 = 0.3428	x1 = 0.4555	x1 = 0.5459	x1 = 0.6484	x1 = 0.7582	x1 = 0.8761
298.15 K	67.45	62.1	56.19	50.09	42.34	36.04	28.79	20.97	12.53
303.15 K	53.11	49.29	45.07	40.5	34.55	29.64	23.86	17.53	10.61
308.15 K	42.18	39.46	36.34	32.86	28.33	24.49	19.94	14.75	9.039

CC(C)CCO + OCCCO
viscosity [mPa·s], 100 kPa
Conditions	x1 = 0.0679	x1 = 0.1388	x1 = 0.218	x1 = 0.3009	x1 = 0.4084	x1 = 0.4979	x1 = 0.6034	x1 = 0.7212	x1 = 0.8537
298.15 K	37.92	35.56	32.86	29.98	26.12	22.84	18.89	14.42	9.305
303.15 K	30.13	28.24	26.14	23.83	20.79	18.2	15.09	11.57	7.532
308.15 K	25.86	24.27	22.55	20.66	18.08	15.91	13.3	10.25	6.745

CC(C)CCO + OCCO
viscosity [mPa·s], 100 kPa
Conditions	x1 = 0.0538	x1 = 0.1127	x1 = 0.1769	x1 = 0.2492	x1 = 0.3333	x1 = 0.4312	x1 = 0.5385	x1 = 0.6667	x1 = 0.8167
298.15 K	17.29	16.59	15.84	14.92	13.82	12.46	10.93	8.999	6.622
303.15 K	13.53	13.1	12.52	11.8	10.97	9.889	8.629	7.087	5.243
308.15 K	11.48	11.11	10.72	10.22	9.549	8.689	7.683	6.336	4.792

CCOCCO + OCCO
Conditions	viscosity [mPa·s]
293.15 K, 101 kPa, x1 = 0.0582	18.48
293.15 K, 101 kPa, x1 = 0.0952	16.68
293.15 K, 101 kPa, x1 = 0.2037	11.81
293.15 K, 101 kPa, x1 = 0.3098	7.965
293.15 K, 101 kPa, x1 = 0.4062	5.445
293.15 K, 101 kPa, x1 = 0.4503	4.568
293.15 K, 101 kPa, x1 = 0.5003	3.813
293.15 K, 101 kPa, x1 = 0.5413	3.301
293.15 K, 101 kPa, x1 = 0.5988	2.777
293.15 K, 101 kPa, x1 = 0.6952	2.401
293.15 K, 101 kPa, x1 = 0.8031	2.264
293.15 K, 101 kPa, x1 = 0.9002	2.143
293.15 K, 101 kPa, x1 = 0.9508	2.121
293.15 K, 101.33 kPa, x2 = 0.0923	2.519
293.15 K, 101.33 kPa, x2 = 0.2349	3.38
293.15 K, 101.33 kPa, x2 = 0.3267	4.07
293.15 K, 101.33 kPa, x2 = 0.4103	4.91
293.15 K, 101.33 kPa, x2 = 0.4957	6.008
293.15 K, 101.33 kPa, x2 = 0.5486	6.84
293.15 K, 101.33 kPa, x2 = 0.6451	8.722
293.15 K, 101.33 kPa, x2 = 0.7319	10.9
293.15 K, 101.33 kPa, x2 = 0.7782	12.29
293.15 K, 101.33 kPa, x2 = 0.8336	14.04
293.15 K, 101.33 kPa, x2 = 0.9075	16.88
293.15 K, 101.33 kPa, x2 = 0.9556	19.08
298.15 K, 101 kPa, x1 = 0.0423	15.82
298.15 K, 101 kPa, x1 = 0.1127	13.26
298.15 K, 101 kPa, x1 = 0.1983	10.12
298.15 K, 101 kPa, x1 = 0.2953	7.192
298.15 K, 101 kPa, x1 = 0.3988	4.883
298.15 K, 101 kPa, x1 = 0.4532	4.022
298.15 K, 101 kPa, x1 = 0.5005	3.474
298.15 K, 101 kPa, x1 = 0.5429	3.085
298.15 K, 101 kPa, x1 = 0.593	2.739
298.15 K, 101 kPa, x1 = 0.6905	2.349
298.15 K, 101 kPa, x1 = 0.8044	2.188
298.15 K, 101 kPa, x1 = 0.8963	2.021
298.15 K, 101 kPa, x1 = 0.9496	1.94
303.15 K, 101 kPa, x1 = 0.0596	12.4
303.15 K, 101 kPa, x1 = 0.1011	11.29
303.15 K, 101 kPa, x1 = 0.1976	8.571
303.15 K, 101 kPa, x1 = 0.3002	5.937
303.15 K, 101 kPa, x1 = 0.3989	4.122
303.15 K, 101 kPa, x1 = 0.4504	3.447
303.15 K, 101 kPa, x1 = 0.4926	2.988
303.15 K, 101 kPa, x1 = 0.5502	2.554
303.15 K, 101 kPa, x1 = 0.6034	2.237
303.15 K, 101 kPa, x1 = 0.7013	1.974
303.15 K, 101 kPa, x1 = 0.8026	1.954
303.15 K, 101 kPa, x1 = 0.8923	1.933
303.15 K, 101 kPa, x1 = 0.9401	1.883

CC[N+](CC)(CC)CC.[Br-] + OCCO
viscosity [mPa·s], 100 kPa
Conditions	298 K	298.15 K	308 K	318 K
x1 = 0.333	–	37.5	–	–
x2 = 0.75	28	–	18.5	13

CCOCCO + OCCOCCO
101 kPa
Conditions	viscosity [mPa·s]
293.15 K, x1 = 0.0582	33.17
293.15 K, x1 = 0.0952	30.25
293.15 K, x1 = 0.2037	23.28
293.15 K, x1 = 0.3098	18.21
293.15 K, x1 = 0.4062	14.48
293.15 K, x1 = 0.4503	13.03
293.15 K, x1 = 0.5003	11.5
293.15 K, x1 = 0.5413	10.37
293.15 K, x1 = 0.5988	8.935
293.15 K, x1 = 0.6952	6.844
293.15 K, x1 = 0.8031	4.921
293.15 K, x1 = 0.9002	3.465
293.15 K, x1 = 0.9508	2.759
298.15 K, x1 = 0.0511	26.45
298.15 K, x1 = 0.1023	23.41
298.15 K, x1 = 0.2003	18.57
298.15 K, x1 = 0.2998	14.7
298.15 K, x1 = 0.3988	11.61
298.15 K, x1 = 0.4514	10.25
298.15 K, x1 = 0.4998	9.068
298.15 K, x1 = 0.5476	8.079
298.15 K, x1 = 0.5996	7.096
298.15 K, x1 = 0.6983	5.447
298.15 K, x1 = 0.7991	4.05
298.15 K, x1 = 0.882	3.061
298.15 K, x1 = 0.95	2.337
303.15 K, x1 = 0.0643	18.69
303.15 K, x1 = 0.0932	17.45
303.15 K, x1 = 0.2072	13.23
303.15 K, x1 = 0.3008	10.56
303.15 K, x1 = 0.4001	8.317
303.15 K, x1 = 0.4496	7.372
303.15 K, x1 = 0.4939	6.612
303.15 K, x1 = 0.5508	5.751
303.15 K, x1 = 0.5913	5.201
303.15 K, x1 = 0.701	3.93
303.15 K, x1 = 0.7959	3.051
303.15 K, x1 = 0.899	2.267
303.15 K, x1 = 0.9218	2.117

CCOCCO + OCCOCCOCCO
101 kPa
Conditions	viscosity [mPa·s]
293.15 K, x1 = 0.0493	36.7
293.15 K, x1 = 0.1039	32.11
293.15 K, x1 = 0.1964	25.21
293.15 K, x1 = 0.3004	18.99
293.15 K, x1 = 0.3949	14.53
293.15 K, x1 = 0.4468	12.49
293.15 K, x1 = 0.5005	10.66
293.15 K, x1 = 0.5512	9.194
293.15 K, x1 = 0.6003	7.883
293.15 K, x1 = 0.7017	5.752
293.15 K, x1 = 0.7946	4.246
293.15 K, x1 = 0.9032	2.957
293.15 K, x1 = 0.941	2.603
298.15 K, x1 = 0.0425	31.4
298.15 K, x1 = 0.1132	26.58
298.15 K, x1 = 0.198	21.56
298.15 K, x1 = 0.2956	16.85
298.15 K, x1 = 0.3992	12.84
298.15 K, x1 = 0.4535	11.09
298.15 K, x1 = 0.5008	9.696
298.15 K, x1 = 0.5433	8.635
298.15 K, x1 = 0.5935	7.463
298.15 K, x1 = 0.69	5.545
298.15 K, x1 = 0.8038	3.871
298.15 K, x1 = 0.8966	2.774
298.15 K, x1 = 0.95	2.248
303.15 K, x1 = 0.0543	26.39
303.15 K, x1 = 0.0954	24.22
303.15 K, x1 = 0.2034	19.01
303.15 K, x1 = 0.2991	15.11
303.15 K, x1 = 0.4003	11.78
303.15 K, x1 = 0.4492	10.39
303.15 K, x1 = 0.5007	9.084
303.15 K, x1 = 0.5429	8.086
303.15 K, x1 = 0.5978	6.967
303.15 K, x1 = 0.6987	5.187
303.15 K, x1 = 0.8008	3.732
303.15 K, x1 = 0.9005	2.597
303.15 K, x1 = 0.95	2.081
